Reference: patent publication US10130616B2, “Securinine and norsecurinine analogue compounds for the treatment of myeloid disorders” (Case Western Reserve University, priority 2013, dated 2018)
Read-outs that look alike come from different tables or passages of the source.

Columns and labels:
HL-60 cells = assay: Growth of HL-60 cells (IC50); assay type: cell-based, human; details: value bracketed between tested concentrations
HL-60 leukemic cells = assay: Nitroblue Tetrazolium (NBT) reduction assay, differentiation of HL-60 leukemic cells; assay type: cell-based, human
Text: In an aspect of the present disclosure, the compounds of the disclosure can be identified using a novel high-throughput screen that is biased to identify agents that have both a high potency and low toxicity in a myeloid disorder disease model, such as an animal or cell model. In some embodiments, the high-throughput screen measures the differentiation of HL-60 leukemic cells using a quantitative nitroblue tetrazolium (NBT) reduction assay. Screening HL-60 cells, human promyelocytic cells, is advantageous as they have been used extensively as a cell line to study myeloid differentiation. Though promyelocytic cells, HL-60 cells were derived from a patient with acute myeloblastic leukemia with maturation, FAB-M2.
This technique has also been widely exploited in HL-60 cells to analyze myelomonocytic differentiation.
The NBT screen works due to changes in the oxidoreductases during differentiation that lead to increases in rates of NBT reduction. NBT is reduced due to the production of superoxide that is catalyzed by an NADPH oxidase. […] NBT is reduced by superoxide from a soluble yellow compound to insoluble blue formazan granules whose formation can be monitored spectrophotometrically at 560 nm as the unreduced dye has minimal absorbance at this wavelength. A quantitative NBT reduction assay is ideal for this type of screen as it is simple, sensitive, quantitative, requires minimal cells, has been proven to have low well to well variability, and the amount of reduced NBT is proportional to the number of cells reducing the dye as well as the amount reduced by each cell.
To discover novel AML differentiation-inducing compounds a rapid high-throughput screen (HTS) was developed and optimized. The screen was designed to be biased to identify compounds that, unlike the majority of known differentiation-inducing agents, have both high potency and low toxicity. The screen measured the differentiation of HL-60 leukemic cells using a quantitative Nitroblue Tetrazolium (NBT) reduction assay, a test that is used extensively as a measure of functional myelomonocytic differentiation. The basis for the screen is unreduced NBT exists as a yellow soluble dye. Differentiated leukemic cells are capable of producing a respiratory burst that can reduce NBT into a blue insoluble compound that can be measured spectrophotometrically. This forward chemical genetics approach allowed the discovery of novel compounds that can act on targets not previously known to be “drugable.” As only live cells can reduce NBT, the screen is biased in identifying relatively nontoxic compounds.
To perform the screen, duplicate plates of HL-60 cells were cultured at a density of 5×10^4 cells/mL with 10 μM of each compound in 96 well plates for 5 days. To determine the relative capability for a compound to induce differentiation compared to known potent inducers, each plate destined for the NBT reduction assay included wells with 0.1% DMSO (vehicle control) and 1 μM ATRA. This approach eliminates any slight day to day variation in NBT reduction values and allows the discovery of compounds with similar or greater efficacy to ATRA. Differentiation was determined in the 96 well plates by incubating the cells with 1 mg/mL of NBT and 200 ng/mL of PMA as the stimulant for the respiratory burst for 35 minutes at 37° C. The reaction was then stopped with HCl and the formazan solubilized with DMSO. Finally, the reaction mixture was read spectrophotometrically at 560 nm in a plate reader.
The securinine and norsecurinine analogues were tested and evaluated on their abilities to affect differentiation and growth of HL-60 cells (Table 1).

[1] = Homo sapiens, HL-60, HL-60 cells, read-out: HL-60, IC50
[2] = Homo sapiens, HL-60 cells, value bracketed between tested concentrations, read-out: HL-60, Dif50
[3] = Homo sapiens, HL-60, read-out: HL-60, Dif50

Compound	IC50 (HL-60 cells; [1])	EC50 (HL-60 leukemic cells; [2])	also measured
O=C1C=C2C(C#CCC3CCCC3)=C[C@@H]3C[C@@]2(O1)[C@H]1CCCCN31 [Compound 24]	1.25 to 2.5 µM		
COc1ccc(CN[C@H]2CC3=CC(=O)O[C@@]34C[C@@H]2N2CCCC[C@@H]24)cc1 [Compound 86]		15 to 20 µM	
O=C1C=C2CC(n3ccnc3)[C@@H]3C[C@@]2(O1)[C@H]1CCCCN31 (stereo partly drawn) [Compound 99]		15 to 20 µM	
CCCCCCCSC1CC2=CC(=O)O[C@@]23C[C@@H]1N1CCCC[C@@H]13 (stereo partly drawn) [Compound 71]			EC50 (HL-60 leukemic cells; [3]): 20 to 30 µM
O=C1C=C2CC(SCc3ccccc3O)[C@@H]3C[C@@]2(O1)[C@H]1CCCCN31 (stereo partly drawn) [Compound 94]			EC50 (HL-60 leukemic cells; [3]): 15 to 20 µM
O=C1C=C2CC(SCC3CCCCCC3)[C@@H]3C[C@@]2(O1)[C@H]1CCCCN31 (stereo partly drawn) [Compound 70]			EC50 (HL-60 leukemic cells; [3]): 10 to 15 µM
O=C1C=C2CC(SC3CCCC3)[C@@H]3C[C@@]2(O1)[C@H]1CCCCN31 (stereo partly drawn) [Compound 97]			EC50 (HL-60 leukemic cells; [3]): 15 to 20 µM
O=C1C=C2C(I)=C[C@@H]3C[C@@]2(O1)[C@H]1CCCCN31 [Compound 14]			EC50 (HL-60 leukemic cells; [3]): 0.5 to 0.75 µM
CO[C@H]1CC2=CC(=O)O[C@@]23C[C@@H]1N1CCCC[C@@H]13 [INVS-MG-97-IIB]			EC50 (HL-60 leukemic cells; HL-60 cells, value bracketed between tested concentrations, read-out: HL-60, Dif50): > 30 µM
O=C1C=C2C(C#CC3CC3)=C[C@@H]3C[C@@]2(O1)[C@H]1CCCCN31 [Compound 25]	1.25 to 2.5 µM		
CCN(CC)CCSC1CC2=CC(=O)O[C@@]23C[C@@H]1N1CCCC[C@@H]13 (stereo partly drawn) [Compound 73]		10 to 15 µM	
O=C1C=C2CC(NC3CCCCCCC3)[C@@H]3C[C@@]2(O1)[C@H]1CCCCN31 (stereo partly drawn) [Compound 84]		> 30 µM	
COC(OC)[C@H]1CC[C@H]2N1[C@@H]1C=CC3=CC(=O)O[C@@]32C1 [Compound 2]			EC50 (HL-60 leukemic cells; [3]): 3.25 to 5 µM
CCCSC1CC2=CC(=O)O[C@@]23C[C@@H]1N1CCCC[C@@H]13 (stereo partly drawn) [Compound 74]		15 to 20 µM	
CCCCC1=C[C@@H]2C[C@@]3(OC(=O)C=C13)[C@H]1CCCCN21 [Compound 4]	3 to 4 µM		
O=C1C=C2C(C#Cc3cccs3)=C[C@@H]3C[C@@]2(O1)[C@H]1CCCCN31 [Compound 52]	0.07 to 0.156 µM		
O=C1C=C2C(I)=C[C@@H]3C[C@@]2(O1)[C@H]1CCCCN31 [Compound 13]			IC50 (HL-60 cells; read-out: HL-60, IC50, HL-60 cells): < 2.5 µM
CC(C)[Si](OCC#CC1=C[C@@H]2C[C@@]3(OC(=O)C=C13)[C@H]1CCCCN21)(C(C)C)C(C)C [Compound 27]			IC50 (HL-60 cells; Homo sapiens, HL-60, read-out: HL-60, IC50, HL-60 cells): 0.625 to 1.25 µM
O=C1C=C2CC(NC3CCCCCC3)[C@@H]3C[C@@]2(O1)[C@H]1CCCCN31 (stereo partly drawn) [Compound 83]		> 30 µM	
O=C1C=C2CC(SCc3ccccc3)[C@@H]3C[C@@]2(O1)[C@H]1CCCCN31 (stereo partly drawn) [Compound 93]			EC50 (HL-60 leukemic cells; [3]): > 30 µM
O=C1C=C2CC(NC3CCCC3)[C@@H]3C[C@@]2(O1)[C@H]1CCCCN31 (stereo partly drawn) [Compound 81]		10 to 15 µM	
O=C1C=C2C[C@H](S(=O)(=O)c3ccccc3)[C@@H]3C[C@@]2(O1)[C@H]1CCCCN31 [Compound 88]		5 to 7.5 µM	
Cc1ccccc1C#CC1=C[C@@H]2C[C@@]3(OC(=O)C=C13)[C@H]1CCCCN21 [Compound 38]	1.25 to 2.5 µM		
O=C1C=C2CC(n3nnc4ccccc43)[C@@H]3C[C@@]2(O1)[C@H]1CCCCN31 (stereo partly drawn) [Compound 92]		20 to 30 µM	
CC(C)(C)c1ccc(C2=C[C@@H]3C[C@@]4(OC(=O)C=C24)[C@H]2CCCCN32)cc1 [Compound 5]	20 to 30 µM		
O=C1C=C2C(C#Cc3ccc(-c4ccccc4)cc3)=C[C@@H]3C[C@@]2(O1)[C@H]1CCCCN31 [Compound 51]	< 0.07 µM		
Nc1ccc(C#CC2=C[C@@H]3C[C@@]4(OC(=O)C=C24)[C@H]2CCCCN32)cc1 [Compound 63]	0.156 µM		
C[N+]12CCCC[C@@H]1[C@]13C[C@H]2C=C(I)C1=CC(=O)O3 (stereo partly drawn) [Compound 9]	5 to 7.5 µM		
O=C1C=C2C(C#Cc3ccc(F)cc3)=C[C@@H]3C[C@@]2(O1)[C@H]1CCCCN31 [Compound 30]	0.31 to 0.625 µM		
CC(C)(C)OCC#CC1=C[C@@H]2C[C@@]3(OC(=O)C=C13)[C@H]1CCCCN21 [Compound 45]	1.25 to 2.5 µM		
